Results reported in patent publication US20060079453A1, “Hla binding peptides and their uses” (priority 2002, published 2006).
Like-named read-outs stand apart in the source and are kept apart here. No end group written: not given here.

How the values were obtained:
[1] = target: HLA-A*6802 (Homo sapiens, UniProt P04439, A269V/D140Y/D185E/E176V/E277Q/E87N/F33Y/G231S/I121R/I166T/I218V/L180W/L300P/L318F/N151K/P208A/P217A/Q86R/R138H/R169H/S129P/T345S/V36M); experiment: biochemical; format: binding
[2] = target: HLA-A*0206 (Homo sapiens, UniProt P04439, D140Y/D185E/D98H/E176V/E277Q/F33Y/G131W/G231S/I119V/I121R/I166T/I218V/L300P/L318F/N151K/N90K/P208A/P217A/Q86G/Q94H/R138H/R169H/T345S); experiment: biochemical; format: binding
[3] = target: HLA-A*0202 (Homo sapiens, UniProt P04439, D140Y/D185E/D98H/E176V/E277Q/G131W/G231S/I119L/I121R/I166T/I218V/L180W/L300P/L318F/N151K/N90K/P208A/P217A/Q67R/Q86G/Q94H/R138H/R169H/T345S); experiment: biochemical; format: binding
[4] = target: HLA-A*0203 (Homo sapiens, UniProt P04439, A173T/D140Y/D185E/D98H/E277Q/G131W/G231S/I119V/I121R/I166T/I218V/L180W/L300P/L318F/N151K/N90K/P208A/P217A/Q86G/Q94H/R138H/R169H/T345S); experiment: biochemical; format: binding
[5] = target: HLA-A*0201 (Homo sapiens, UniProt P04439, D140Y/D185E/D98H/E176V/E277Q/G131W/G231S/I119V/I121R/I166T/I218V/L300P/L318F/N151K/N90K/P208A/P217A/Q86G/Q94H/R138H/R169H/T345S); experiment: biochemical; format: binding
[6] = target: HLA-A*2902 (Homo sapiens, UniProt P04439, A270S/D101N/D185E/E176V/E277Q/E87Q/F33T/G231S/H175R/I121M/I218V/I322F/K168Q/L300P/L318F/M331R/P208A/P217A/Q86L/T323A/T345S/V100A/V358M); experiment: MHC molecular binding / Capture assay, IC50: A*2902
[7] = target: HLA-A*3002 (Homo sapiens, UniProt P04439, D101N/D140H/D185E/E176R/F33S/G80R/H175R/K168Q/Q94H/R138E/R41S/V100E); experiment: biochemical; format: binding
[8] = A*6802 binding affinity (expressed as an IC50)
[9] = A*0206 binding affinity (expressed as an IC50)
[10] = A*0202 binding affinity (expressed as an IC50)
[11] = A*0203 binding affinity (expressed as an IC50)
[12] = A*0201 binding affinity (expressed as an IC50)
[13] = read-out: A*6802 binding affinity (expressed as an IC50)
[14] = read-out: A*0201 binding affinity (expressed as an IC50)
[15] = Binding affinity to A*2902 (expressed as an IC50)
[16] = Binding affinity to A*3002 (expressed as an IC50)

## IISAVVAIL
[1]; [8]
  IC50: 148 nM
[2]; [9]
  IC50: 1440 nM
[3]; [10]
  IC50: 8 nM
[4]; [11]
  IC50: 45 nM

## LLFGWCFKLV
[3]
  IC50: 84 nM

## SLGPGPGIAV
[1]; [8]
  IC50: 281 nM
[2]; [9]
  IC50: 917 nM
[3]; [10]
  IC50: 5.3 nM
[4]; [11]
  IC50: 11 nM

## MTANPPVPV
[1]; [8]
  IC50: 4 nM
[3]; [10]
  IC50: 5 nM
[5]; [12]
  IC50: 20 nM
[4]; [11]
  IC50: 0.62 nM

## KIFAVVGIL
[1]; [13]
  IC50: 6660 nM
[5]; [14]
  IC50: 3960 nM

## QAHCNISRA
[5]; [12]
  IC50: 338 nM

## YLPGPGIRYPL
[2]; [9]
  IC50: 3500 nM
[3]
  IC50: 20 nM
[4]
  IC50: 1580 nM

## TLQGPGPGL
[1]; [8]
  IC50: 3810 nM
[2]; [9]
  IC50: 9120 nM
[3]; [10]
  IC50: 62 nM
[4]; [11]
  IC50: 951 nM

## CC[C@H](C)[C@H](NC(=O)[C@H](CCC(=O)O)NC(=O)[C@H](CC(C)C)NC(=O)[C@H](C)NC(=O)[C@H](CO)NC(=O)[C@H](CO)NC(=O)[C@H](CC(C)C)NC(=O)[C@@H](N)CCC(=O)O)C(=O)N1CCC[C@H]1C(=O)N[C@@H](Cc1ccc(O)cc1)C(=O)O
[6]; [15]
  IC50: 6030 nM
[7]; [16]
  IC50: 4470 nM

## RLPVICSFLV
[1]; [8]
  IC50: 9180 nM
[2]; [9]
  IC50: 19 nM
[3]; [10]
  IC50: 2.5 nM
[4]; [11]
  IC50: 33 nM

## CC[C@H](C)[C@H](NC(=O)[C@H](Cc1ccc(O)cc1)NC(=O)[C@H](Cc1ccccc1)NC(=O)[C@H](CCCNC(=N)N)NC(=O)[C@H](CC(N)=O)NC(=O)[C@H](CCSC)NC(=O)[C@@H](N)Cc1ccccc1)C(=O)N[C@H](C(=O)N[C@H](C(=O)O)[C@@H](C)O)[C@@H](C)O
[1]; [8]
  IC50: 6540 nM
[2]; [9]
  IC50: 996 nM
[3]; [10]
  IC50: 18 nM

## KYQAVTTTL
[6]; A*2902 binding affinity (IC50)
  IC50: > 156000 nM

## CC(C)C[C@H](NC(=O)[C@H](Cc1c[nH]cn1)NC(=O)[C@H](CC(C)C)NC(=O)[C@H](CCCCN)NC(=O)[C@H](CCCNC(=N)N)NC(=O)CNC(=O)[C@H](Cc1ccc(O)cc1)NC(=O)[C@@H](NC(=O)[C@@H](N)CCCCN)[C@@H](C)O)C(=O)N[C@@H](Cc1ccc(O)cc1)C(=O)O
[6]; [15]
  IC50: 27 nM
[7]; [16]
  IC50: 1.5 nM

## KLTPRCVTL
[1]
  IC50: > 63500 nM
[2]
  IC50: 1550 nM
[3]
  IC50: 150 nM
[4]
  IC50: 20 nM

## KVYGLSAFV
[1]; [8]
  IC50: 110 nM
[2]; [9]
  IC50: 69 nM
[3]; [10]
  IC50: 1.8 nM
[4]; [11]
  IC50: 11 nM

## SSFFMNRFY
[6]; [15]
  IC50: 36 nM
[7]; [16]
  IC50: 7.5 nM

## YLSGAIDLNL
[1]; [13]
  IC50: 51200 nM
[5]; [14]
  IC50: 36 nM

## LLYSKKRQEI
[2]
  IC50: > 9440 nM
[5]
  IC50: 80700 nM
[4]
  IC50: 152 nM

## KIFASVAIL
[1]; [8]
  IC50: 363 nM
[3]; [10]
  IC50: 16 nM
[4]; [11]
  IC50: 21 nM

## CC(C)C[C@H](NC(=O)[C@H](CO)NC(=O)[C@@H](N)CC(C)C)C(=O)N[C@@H](CC(=O)O)C(=O)N[C@H](C(=O)N[C@@H](CO)C(=O)N[C@@H](C)C(=O)N[C@@H](C)C(=O)N[C@@H](Cc1ccccc1)C(=O)N[C@@H](Cc1ccc(O)cc1)C(=O)O)C(C)C
[6]; [15]
  IC50: 12 nM

## QLGPGPGLMEV
[1]; [8]
  IC50: 648 nM
[2]; [9]
  IC50: 481 nM
[3]; [10]
  IC50: 9.4 nM
[4]; [11]
  IC50: 29 nM

## LLNESNIFL
[1]; [8]
  IC50: 4480 nM
[3]; [10]
  IC50: 2.5 nM
[5]; [12]
  IC50: 43 nM
[4]; [11]
  IC50: 24 nM

## ILDLWVYNV
[3]
  IC50: 30 nM
[5]
  IC50: 40 nM
[4]
  IC50: 201 nM

## FPFKYAAAV
[1]; [8]
  IC50: 92 nM

## FLIFHFFLFL
[1]; [8]
  IC50: 475 nM
[5]; [12]
  IC50: 161 nM
[4]; [11]
  IC50: 2090 nM

## VLAEAMSHA
[1]
  IC50: 431 nM
[2]
  IC50: 121 nM
[3]
  IC50: 1.7 nM
[4]
  IC50: 1.2 nM

## WLNYTPGPGI
[1]
  IC50: 1200 nM
[2]
  IC50: > 31600 nM
[3]
  IC50: 4.6 nM
[4]
  IC50: 46 nM

## ILGPGPGL
[1]; [8]
  IC50: 56100 nM
[3]; [10]
  IC50: 45 nM
[5]; [12]
  IC50: 672 nM
[4]; [11]
  IC50: 530 nM

## LTDVSIACVY
[6]
  IC50: 764 nM
[7]
  IC50: 72 nM

## KTYGGPGPGY
[6]; [15]
  IC50: 228 nM
[7]; [16]
  IC50: 1.7 nM

## VLAKGPGPGTL
[1]; [8]
  IC50: > 170000 nM
[3]; [10]
  IC50: 26 nM
[5]; [12]
  IC50: 11300 nM

## TLHDLCQAV
[1]
  IC50: 2810 nM
[2]
  IC50: 10600 nM
[3]
  IC50: 17 nM
[4]
  IC50: 15 nM

## FGVRPQVPL
[1]
  IC50: 321 nM

## WQNYTPGPGV
[1]; [8]
  IC50: 12000 nM
[2]; [9]
  IC50: 223 nM
[4]; [11]
  IC50: 230 nM

## TYGWCFKL
[6]
  IC50: 25700 nM
[7]
  IC50: > 8040 nM

## KLTPLCVPL
[3]
  IC50: 0.25 nM
[5]
  IC50: 15 nM
[4]
  IC50: 297 nM
